The source of these data is PMC10302398, “Mechanistic Insights into the Antibiofilm Mode of Action of Ellagic Acid” (Pharmaceutics, 2023).

In test [1] the target is T1, WrbA (NADH:quinone oxidoreductase WrbA; WrbAJW) (Escherichia coli, UniProt P0A8G6). Nature of the test: MST (Kd […]); also SPR (Kd […]) and NADH:DCPIP oxidoreductase inhibition (IC50 […]). Type of test: binding.
For test [2], the target named is T1, WrbA (NADH:quinone oxidoreductase WrbA; WrbAJW). Nature of the test: NADH:DCPIP oxidoreductase activity assay of purified WrbAJW. The class given is biochemical.

Structures are written as SMILES.

T1 sequence (P0A8G6 2-198): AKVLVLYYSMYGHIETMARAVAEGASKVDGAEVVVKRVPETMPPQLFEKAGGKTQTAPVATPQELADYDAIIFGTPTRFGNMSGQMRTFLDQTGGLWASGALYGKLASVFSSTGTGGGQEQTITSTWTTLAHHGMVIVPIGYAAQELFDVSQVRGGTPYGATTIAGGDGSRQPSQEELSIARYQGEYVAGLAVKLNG

In the case of `O=c1oc2c(O)c(O)cc3c(=O)oc4c(O)c(O)cc1c4c23` [EA, ellagic acid], in test [1], binding was put at a Kd of 0.0015 ± 0.0004 mM.
In test [2], `O=C(O)c1ccccc1O` [SA, salicylic acid] returned an IC50 of 7.85 ± 2.65 mM.

By Kd is commonly meant a measure of binding affinity in units of concentration. A higher Kd goes with weaker binding. Broadly, the IC50 is the concentration at which inhibition is half-maximal.
